Here are results for nine cell lines from the supplement of paper PMC10307832.

Compound in the experiment “BI-D1870 + AZD7762”: CC(C)CCN1c2nc(Nc3cc(F)c(O)c(F)c3)ncc2N(C)C(=O)C1C [BI-D1870] + NC(=O)Nc1cc(-c2cccc(F)c2)sc1C(=O)N[C@H]1CCCNC1 [AZD7762] (partner 0.2 µM)
The experiment can be described thus: relative viability (nuclei count vs DMSO), 5 days (fraction); higher = more cells survive. In a few lines:
(§1)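 Relative viability is defined as nuclei in treated wells over nuclei in vehicle wells. Duplicate plates were run and medians reported. Lung cancer cell lines in 1536-well plates were dosed by pin tool one day after seeding, with one drug or with a fixed anchor-drug dose plus five library-drug doses (not always all listed) in √10 steps, and nuclei were counted after 5 days.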

Compound in the experiment “BI-D1870 + Vorinostat”: CC(C)CCN1c2nc(Nc3cc(F)c(O)c(F)c3)ncc2N(C)C(=O)C1C [BI-D1870] + O=C(CCCCCCC(=O)Nc1ccccc1)NO [Vorinostat] (partner 1 µM)
The experiment is described as above. A digest of the protocol:
as §1

Take LXF-289: the relative viability amounted to 1.08 with BI-D1870 + AZD7762 (first compound 0.04 µM); 1.04 with BI-D1870 + AZD7762 (first compound 0.1265 µM); 1.07 with BI-D1870 + AZD7762 (first compound 0.4 µM); 1.06 with BI-D1870 + AZD7762 (first compound 1.265 µM); 0.943 with BI-D1870 + AZD7762 (first compound 4 µM); 0.681 with BI-D1870 + Vorinostat (first compound 0.04 µM). Further, the relative viability with BI-D1870 + Vorinostat (first compound 0.1265 µM) came to 0.738; in the experiment with BI-D1870 + Vorinostat (first compound 0.4 µM) it was 0.695; with BI-D1870 + Vorinostat (first compound 1.265 µM) it was 0.695; in the experiment with BI-D1870 + Vorinostat (first compound 4 µM), 0.527.

For NCI-H23, the relative viability in the experiment with BI-D1870 + AZD7762 (first compound 0.04 µM) was 0.337; with BI-D1870 + AZD7762 (first compound 0.1265 µM), 0.224; in the experiment with BI-D1870 + AZD7762 (first compound 0.4 µM), 0.23; with BI-D1870 + AZD7762 (first compound 1.265 µM), 0.192; in the experiment with BI-D1870 + AZD7762 (first compound 4 µM), 0.243; with BI-D1870 + Vorinostat (first compound 0.04 µM), 0.555. Also, the relative viability with BI-D1870 + Vorinostat (first compound 0.1265 µM) amounted to 0.619; with BI-D1870 + Vorinostat (first compound 0.4 µM), 0.489; in the experiment with BI-D1870 + Vorinostat (first compound 1.265 µM) it was 0.448; with BI-D1870 + Vorinostat (first compound 4 µM), 0.202.

On to NCI-H322M, for which the relative viability with BI-D1870 + AZD7762 (first compound 0.04 µM) turned out to be 0.591; with BI-D1870 + AZD7762 (first compound 0.1265 µM), 0.558; with BI-D1870 + AZD7762 (first compound 0.4 µM), 0.611; in the experiment with BI-D1870 + AZD7762 (first compound 1.265 µM), 0.684; in the experiment with BI-D1870 + AZD7762 (first compound 4 µM), 0.656; with BI-D1870 + Vorinostat (first compound 0.04 µM), 0.919. Also, the relative viability turned out to be 0.879 with BI-D1870 + Vorinostat (first compound 0.1265 µM), 0.76 in the experiment with BI-D1870 + Vorinostat (first compound 0.4 µM), 0.781 in the experiment with BI-D1870 + Vorinostat (first compound 1.265 µM) and 0.769 in the experiment with BI-D1870 + Vorinostat (first compound 4 µM).

For the cell line NCI-H358, the relative viability with BI-D1870 + AZD7762 (first compound 0.04 µM) was 0.551; with BI-D1870 + AZD7762 (first compound 0.1265 µM), 0.566; with BI-D1870 + AZD7762 (first compound 0.4 µM), 0.52; with BI-D1870 + AZD7762 (first compound 1.265 µM) it was 0.594; in the experiment with BI-D1870 + AZD7762 (first compound 4 µM), 0.492; with BI-D1870 + Vorinostat (first compound 0.04 µM) it was 0.834. Moreover, the relative viability with BI-D1870 + Vorinostat (first compound 0.1265 µM) was determined as 0.61; with BI-D1870 + Vorinostat (first compound 0.4 µM), 0.519; with BI-D1870 + Vorinostat (first compound 1.265 µM) it was 0.386; with BI-D1870 + Vorinostat (first compound 4 µM) it was 0.229.

Regarding NCI-H441, the relative viability turned out to be 1.29 with BI-D1870 + AZD7762 (first compound 0.04 µM); 1.09 in the experiment with BI-D1870 + AZD7762 (first compound 0.1265 µM); 1.03 with BI-D1870 + AZD7762 (first compound 0.4 µM); 1.09 with BI-D1870 + AZD7762 (first compound 1.265 µM); 1.1 with BI-D1870 + AZD7762 (first compound 4 µM); 0.686 with BI-D1870 + Vorinostat (first compound 0.04 µM). Also, the relative viability is 0.794 with BI-D1870 + Vorinostat (first compound 0.1265 µM), 0.731 with BI-D1870 + Vorinostat (first compound 0.4 µM), 0.722 in the experiment with BI-D1870 + Vorinostat (first compound 1.265 µM) and 0.655 with BI-D1870 + Vorinostat (first compound 4 µM).

For the cell line NCI-H460, the relative viability with BI-D1870 + AZD7762 (first compound 0.04 µM) amounted to 0.702; with BI-D1870 + AZD7762 (first compound 0.1265 µM) it was 0.621; with BI-D1870 + AZD7762 (first compound 0.4 µM), 0.566; in the experiment with BI-D1870 + AZD7762 (first compound 1.265 µM), 0.993; with BI-D1870 + AZD7762 (first compound 4 µM), 0.829; with BI-D1870 + Vorinostat (first compound 0.04 µM) it was 0.922. In addition, the relative viability with BI-D1870 + Vorinostat (first compound 0.1265 µM) was 0.643; with BI-D1870 + Vorinostat (first compound 0.4 µM), 0.672; in the experiment with BI-D1870 + Vorinostat (first compound 1.265 µM), 0.37; in the experiment with BI-D1870 + Vorinostat (first compound 4 µM) it was 0.0691.

As for NCI-H520, the relative viability with BI-D1870 + Vorinostat (first compound 0.04 µM) is 0.716; with BI-D1870 + Vorinostat (first compound 0.1265 µM) it was 0.755; with BI-D1870 + Vorinostat (first compound 0.4 µM), 0.649; with BI-D1870 + Vorinostat (first compound 1.265 µM), 0.464; with BI-D1870 + Vorinostat (first compound 4 µM) it was 0.198.

For the cell line NCI-H522, the relative viability was 0.84 with BI-D1870 + AZD7762 (first compound 0.04 µM); 0.845 in the experiment with BI-D1870 + AZD7762 (first compound 0.1265 µM); 0.851 with BI-D1870 + AZD7762 (first compound 0.4 µM); 0.935 with BI-D1870 + AZD7762 (first compound 1.265 µM); 0.911 with BI-D1870 + AZD7762 (first compound 4 µM); 1.02 with BI-D1870 + Vorinostat (first compound 0.04 µM). Besides, the relative viability turned out to be 1.09 in the experiment with BI-D1870 + Vorinostat (first compound 0.1265 µM), 1.01 with BI-D1870 + Vorinostat (first compound 0.4 µM), 0.907 in the experiment with BI-D1870 + Vorinostat (first compound 1.265 µM) and 0.94 in the experiment with BI-D1870 + Vorinostat (first compound 4 µM).

NCI-H596: the relative viability in the experiment with BI-D1870 + AZD7762 (first compound 0.04 µM) turned out to be 1.23; in the experiment with BI-D1870 + AZD7762 (first compound 0.1265 µM), 0.9; with BI-D1870 + AZD7762 (first compound 0.4 µM), 1.04; in the experiment with BI-D1870 + AZD7762 (first compound 1.265 µM) it was 1.16; with BI-D1870 + AZD7762 (first compound 4 µM), 0.933; with BI-D1870 + Vorinostat (first compound 0.04 µM), 0.666. Besides, the relative viability with BI-D1870 + Vorinostat (first compound 0.1265 µM) was found to be 0.591; with BI-D1870 + Vorinostat (first compound 0.4 µM), 0.65; with BI-D1870 + Vorinostat (first compound 1.265 µM) it was 0.59; with BI-D1870 + Vorinostat (first compound 4 µM) it was 0.511.
